In US10703748B2, “Diazanaphthalen-3-yl carboxamides and preparation and use thereof” (Samumed, LLC, priority 2017, dated 2020) one finds EC50 and inhibition data, which are given here for 15 molecules.

One may read the EC50 as the concentration needed to bring the measured effect to its halfway point.

The test system of assay [1] is α-smooth muscle actin (aSMA) positive LL29 cells. Put plainly: Inhibition of the fibrotic process: αSMA staining in TGF-β1 treated LL29 fibroblasts from IPF patients. The note with it: Homo sapiens, Fibroblast; for EC50: 96 h; for inhibition at 10 µM: read-out: percentage in parentheses after EC50 >10.
Another assay relates to IL-6. Put plainly: IL-6 inhibition in LPS-stimulated human peripheral blood mononuclear cells (HTRF). The note with it: Homo sapiens, PBMC; for EC50: 22 h; for inhibition at 10 µM: read-out: percentage in parentheses after EC50 >10.
The next assay has as its target DYRK1A kinase (Homo sapiens, UniProt Q13627). Put plainly: DYRK1A kinase activity (Ser/Thr 18 peptide Z-lyte FRET assay).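 Further: kinase activity read as coumarin/fluorescein emission ratio after development step, with unphosphorylated and phosphorylated peptide forms setting 0% and 100% controls, values from dose-response curves.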 The note with it: recombinant DYRK1A, 30 μM ATP, one hour at room temperature. It counts as biochemical.
The target in another assay is GSK3β kinase (Homo sapiens, UniProt P49841). In words: GSK3β kinase activity (Ser/Thr 09 peptide Z-lyte FRET assay). It counts as biochemical. The settings on record: recombinant kinase, 46 μM ATP, one hour at room temperature; read-out: EC50.
GSK3β kinase, sequence (P49841 whole entry): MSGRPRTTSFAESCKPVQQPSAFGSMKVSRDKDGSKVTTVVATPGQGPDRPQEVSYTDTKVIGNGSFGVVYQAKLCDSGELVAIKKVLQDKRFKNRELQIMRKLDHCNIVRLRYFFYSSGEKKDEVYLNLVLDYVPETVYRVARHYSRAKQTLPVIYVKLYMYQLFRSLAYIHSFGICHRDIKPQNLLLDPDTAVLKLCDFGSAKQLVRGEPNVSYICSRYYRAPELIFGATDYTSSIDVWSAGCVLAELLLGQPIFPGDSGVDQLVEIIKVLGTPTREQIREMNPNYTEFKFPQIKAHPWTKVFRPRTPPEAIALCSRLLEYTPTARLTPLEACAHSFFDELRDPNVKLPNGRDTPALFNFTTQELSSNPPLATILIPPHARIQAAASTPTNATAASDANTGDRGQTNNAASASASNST
In assay [2] the test system is Wnt-responsive Sp5-Luc reporter in SW480 colon carcinoma cells. In words: Screening assay for Wnt activity (Sp5-Luc reporter gene assay). The settings on record: Homo sapiens; for EC50: SW480; for inhibition at 10 µM: SW480, read-out: percent inhibition at 10 μM. In general terms: Reporter assays use an easily measured gene product as a stand-in for the process of interest.

The test system of assay [3] is SW480 colon carcinoma cells. In words: Cell viability assay (CellTiter-Glo). The settings on record: Homo sapiens; for EC50: SW480, 96 h; for inhibition at 10 µM: SW480, read-out: percent inhibition at 10 μM. (In ATP-based viability assays light output follows the ATP content of the culture.)
Procedure: Representative compounds were screened using the assay procedure to assess the effect on cell viability as described below.
SW480 colon carcinoma cells were transduced with a lentiviral vector expressing luciferase with a human Sp5 promoter consisting of a sequence of eight TCF/LEF binding sites. […] These stably transduced SW480 cells were expanded in cell culture and used for all further screening activities. Each compound was dissolved in DMSO as a 10 mM stock and used to prepare compound source plates.
For the Cell Viability Assays, the cells were plated at 2,000 cells/well in 384-well plates with a DMEM medium containing 1% fetal bovine serum, and 1% Penicillin-Streptomycin and incubated for four days hours at 37° C. and 5% CO2. Eight replicates of DMSO-treated cells served as controls and cells treated with compound were performed in duplicate.
After incubation, 10 μL of CellTiter-Glo (Promega) was added to each well allowed to incubate for approximately 12 minutes. This reagent “results in cell lysis and generation of a luminescent signal proportional to the amount of ATP present. The amount of ATP is directly proportional to the number of cells present in culture, in agreement with previous reports. The CellTiter-Glo Assay generates a “glow-type” luminescent signal, produced by the luciferase reaction (Promega.com)”.
Dose-response curves were generated and EC50 concentration values were calculated using non-linear regression curve fit in the GraphPad Prism (San Diego, Calif.) or Dotmatics' Studies Software (Bishops Stortford, UK).

On to `Cc1ncc(C(=O)Nc2cc3cc(-c4cnc(C)n4C)cnc3cn2)s1` [Compound 3167, N-(3-(1,2-Dimethyl-1H-imidazol-5-yl)-1,7-naphthyridin-6-yl)-2-methylthiazole-5-carboxamide], for which the EC50 was 2.04 µM in assay [1]; more than 10 µM in the assay on IL-6; 0.037 µM at DYRK1A kinase; more than 10 µM on GSK3β kinase; more than 10 µM in assay [2]; more than 10 µM in assay [3]. The inhibition at 10 µM was found to be 5.4% with IL-6, 0% in assay [2] and 8.1% in assay [3].
Turning to `CN1CCC(Oc2cccc(C(=O)Nc3cc4nc(-c5cnco5)ccc4cn3)c2)CC1` [Compound 591, 3-((1-Methylpiperidin-4-yl)oxy)-N-(2-(oxazol-5-yl)-1,6-naphthyridin-7-yl)benzamide], the concentration for a half-maximal effect (EC50) was more than 10 µM in assay [1]; more than 10 µM with IL-6; more than 10 µM at DYRK1A kinase; more than 10 µM at GSK3β kinase; 6.06 µM in assay [2]; 3.25 µM in assay [3]. The inhibition at 10 µM in assay [1] worked out at 13.3%; with IL-6, 0%.
Take `Cn1cc(-c2cnc3cnc(NC(=O)[C@H]4CCCN4)cc3c2)cn1` [Compound 2782, (R)—N-(3-(1-Methyl-1H-pyrazol-4-yl)-1,7-naphthyridin-6-yl)pyrrolidine-2-carboxamide]: the EC50 is 2.4 µM in assay [1]; more than 10 µM in the assay with IL-6; 0.867 µM at DYRK1A kinase; 2.45 µM at GSK3β kinase; more than 10 µM in assay [2]; more than 10 µM in assay [3]. In addition, the values for the inhibition at 10 µM (with IL-6; in assay [2]; in assay [3]) were 4.3%, 2.2% and 18.8%, respectively.
On to `CC(C)CN1CCC(C(=O)Nc2cc3cc(-c4nnnn4C)cnc3cn2)CC1` [Compound 3118, 1-Isobutyl-N-(3-(1-methyl-1H-tetrazol-5-yl)-1,7-naphthyridin-6-yl) piperidine-4-carboxamide], for which the EC50 in assay [1] was 4.91 µM; with IL-6, more than 10 µM; on DYRK1A kinase, 1.48 µM; at GSK3β kinase it was more than 10 µM; in assay [2], more than 10 µM; in assay [3] it was more than 10 µM. Further, the figures for the inhibition at 10 µM (in the assay with IL-6; in assay [2]; in assay [3]) were 5.3%, 31.2% and 8.3%, respectively.
`CCN(CC)CC(=O)Nc1ncc2ccc(-c3cnn(C)c3CN3CCCCC3)cc2n1` [Compound 1189, 2-(Diethylamino)-N-(7-(1-methyl-5-(piperidin-1-ylmethyl)-1H-pyrazol-4-yl)quinazolin-2-yl)acetamide]: the EC50 in assay [1] is more than 10 µM; in the assay on IL-6, more than 10 µM; on DYRK1A kinase it was 0.186 µM; on GSK3β kinase, 1.69 µM; in assay [2] it was more than 10 µM; in assay [3], more than 10 µM. Moreover, the inhibition at 10 µM in assay [1] was 18%; with IL-6, 7.9%; in assay [2], 29.5%; in assay [3] it was 17.4%.
`CC(C(=O)Nc1cc2cc(-c3cncn3C)cnc2cn1)N1CCCC1` (stereo not drawn) [Compound 3134, N-(3-(1-Methyl-1H-imidazol-5-yl)-1,7-naphthyridin-6-yl)-2-(pyrrolidin-1-yl) propanamide]: the EC50 was more than 10 µM in assay [1]; more than 10 µM in the assay with IL-6; 2 µM on DYRK1A kinase; 2.59 µM at GSK3β kinase; more than 10 µM in assay [2]; more than 10 µM in assay [3]. Moreover, the inhibition at 10 µM in assay [1] turned out to be 19.7%; in the assay with IL-6, 3.9%; in assay [2] it was 10.2%; in assay [3], 23.8%.
Consider `CNC(=O)c1ccc(C(=O)Nc2cc3cc(-c4cn(C)nn4)ncc3cn2)cn1` [Compound 3999, N^2-Methyl-N^5-(6-(1-methyl-1H-1,2,3-triazol-4-yl)-2,7-naphthyridin-3-yl) pyridine-2,5-dicarboxamide], for which the EC50 is more than 10 µM in assay [1]; more than 10 µM in the assay on IL-6; 0.454 µM on DYRK1A kinase; more than 10 µM on GSK3β kinase; more than 10 µM in assay [2]; more than 10 µM in assay [3]. Also, the inhibition at 10 µM in assay [1] amounted to 34.6%; in the assay with IL-6 it was 4.1%; in assay [2], 22%; in assay [3], 27.3%.
Take `Cc1nnc(-c2cc3cc(NC(=O)CN4C5CCC4CC5)ncc3cn2)s1` [Compound 4353, 2-(7-Azabicyclo[2.2.1]heptan-7-yl)-N-(6-(5-methyl-1,3,4-thiadiazol-2-yl)-2,7-naphthyridin-3-yl)acetamide]: the EC50 in assay [1] was more than 10 µM; in the assay on IL-6 it was more than 10 µM; at DYRK1A kinase it was 0.529 µM; on GSK3β kinase it was 2.45 µM; in assay [2] it was more than 10 µM; in assay [3] it was more than 10 µM. The inhibition at 10 µM in assay [1] came to 26.4%; in the assay with IL-6 it was 8.5%; in assay [2], 2.1%; in assay [3] it was 4.1%.
In the case of `Cn1ncc(-c2cnc3cnc(NC(=O)c4ccnc(N5CCOCC5)c4)cc3c2)c1CN1CCOCC1` [Compound 3034, N-(3-(1-Methyl-5-(morpholinomethyl)-1H-pyrazol-4-yl)-1,7-naphthyridin-6-yl)-2-morpholinoisonicotinamide], the EC50 in assay [1] is more than 10 µM; with IL-6, more than 10 µM; at DYRK1A kinase, 0.119 µM; on GSK3β kinase, more than 10 µM; in assay [2], more than 10 µM; in assay [3], more than 10 µM. Further, the inhibition at 10 µM in assay [1] is 31.8%; with IL-6, 9.5%; in assay [2], 0%; in assay [3] it was 10.5%.
Take `Cn1cnnc1-c1cnc2cnc(NC(=O)C3CCN(CCC(F)(F)F)CC3)cc2c1` [Compound 3111, N-(3-(4-Methyl-4H-1,2,4-triazol-3-yl)-1,7-naphthyridin-6-yl)-1-(3,3,3-trifluoropropyl)piperidine-4-carboxamide]: the EC50 is more than 10 µM in assay [1]; more than 10 µM in the assay with IL-6; 0.377 µM at DYRK1A kinase; 2.14 µM at GSK3β kinase; more than 10 µM in assay [2]; more than 10 µM in assay [3]. Besides, the inhibition at 10 µM is 46.4% in assay [1], 7.5% in the assay with IL-6, 9.7% in assay [2] and 16.1% in assay [3].
On to `CN1CCCN(c2cc(C(=O)Nc3cc4cc(-c5cn(C)nn5)cnc4cn3)ccn2)CC1` [Compound 3099, 2-(4-Methyl-1,4-diazepan-1-yl)-N-(3-(1-methyl-1H-1,2,3-triazol-4-yl)-1,7-naphthyridin-6-yl)isonicotinamide], for which the EC50 in assay [1] is more than 10 µM; in the assay on IL-6, more than 10 µM; at DYRK1A kinase it was 0.154 µM; on GSK3β kinase, more than 10 µM; in assay [2], 0.696 µM; in assay [3] it was more than 10 µM. For the same molecule, the inhibition at 10 µM in assay [1] was determined as 44.4%; in the assay with IL-6, 0%; in assay [3], 29.6%.
For `CN1CCN(c2cc(C(=O)Nc3cc4cc(-c5ccc(N)nc5)cnc4cn3)ccn2)CC1` [Compound 3527, N-(3-(6-Aminopyridin-3-yl)-1,7-naphthyridin-6-yl)-2-(4-methylpiperazin-1-yl)isonicotinamide], the EC50 in assay [1] is 3.5 µM; with IL-6, more than 10 µM; on DYRK1A kinase, 0.294 µM; at GSK3β kinase, more than 10 µM; in assay [2], more than 10 µM; in assay [3], more than 10 µM. The inhibition at 10 µM in the assay with IL-6 amounted to 0%; in assay [2] it was 42.5%; in assay [3], 41.8%.
On to `Cn1cc(-c2ccc3cnc(NC(=O)c4coc(C5CCNCC5)n4)cc3n2)cn1` [Compound 241, N-(2-(1-Methyl-1H-pyrazol-4-yl)-1,6-naphthyridin-7-yl)-2-(piperidin-4-yl) oxazole-4-carboxamide], for which the EC50 in assay [1] is 1.58 µM; in the assay with IL-6, 3.72 µM; at DYRK1A kinase it was 0.067 µM; on GSK3β kinase, 0.166 µM; in assay [2], 0.388 µM; in assay [3], 0.466 µM.
On to `Cn1cc(-c2cc3cc(NC(=O)C(C)(C)F)ncc3cn2)nn1` [Compound 3960, 2-Fluoro-2-methyl-N-(6-(1-methyl-1H-1,2,3-triazol-4-yl)-2,7-naphthyridin-3-yl)propanamide], for which the EC50 in assay [1] was more than 10 µM; with IL-6, more than 10 µM; at DYRK1A kinase it was 1.01 µM; at GSK3β kinase it was 1.5 µM; in assay [2], more than 10 µM; in assay [3], more than 10 µM. Further, the inhibition at 10 µM in assay [1] is 23.5%; with IL-6 it was 7%; in assay [2] it was 44.8%; in assay [3], 38.5%.
Turning to `CC(C)OCCC(=O)Nc1cc2cc(-c3cncn3C)cnc2cn1` [Compound 3136, 3-Isopropoxy-N-(3-(1-methyl-1H-imidazol-5-yl)-1,7-naphthyridin-6-yl) propanamide], the EC50 in assay [1] was 0.135 µM; with IL-6, more than 10 µM; on DYRK1A kinase it was 0.123 µM; at GSK3β kinase it was 0.982 µM; in assay [2], more than 10 µM; in assay [3], more than 10 µM. Besides, the values for the inhibition at 10 µM (in the assay on IL-6; in assay [2]; in assay [3]) were 9.8%, 32% and 18.4%, respectively.
